The nature of data set [1]: in vitro. To be noted: human.
Method: (§1) Human cell lines, BEAS-2B (ATCC, USA), JEG-3 (Korean Cell Line Bank, Korea) and HK-2 (Korean Cell Line Bank, Korea) were cultured in T 75 flask containing DMEM (Gibco-BRL, USA) supplemented with 10% FBS at the concentration of 5×10^5 cells/ml. THLE-3 cells were cultured in BEGM (Gibco-BRL, USA) supplemented with 10% FBS. HUVEC cells (ATCC, USA) were cultured in T 75 flask containing EGM-2 (CAMBREX, USA) supplemented with 5% FBS at the concentration of 5×10^5 cells/ml. […] Those drugs were dissolved in DMSO and water. The concentration of vehicle was up to 0.1% in every experiment.
(§2) MTT assay was performed with BEAS-2B, JEG-3, HK-2, THLE-3 and HUVEC according to the method of Mossman et al (J. Immunol. Methods, 65, 55-63, 1983). The cells (Table 2) in a 24-well plate were treated with each drug dissolved in DMSO or water. […] Then, the medium was eliminated and the formed formazan crystal was dissolved in 500 μl of DMSO. The mixture was aliquoted in a 96-well plate and OD54o was measured.
The nature of data set [2]: in vitro. The settings on record: human. This is another data set of the same source.
Data set [3] concerns JEG-3. The settings on record: human, 48 h.
Method: (§3) Human cell lines, BEAS-2B (ATCC, USA), JEG-3 (Korean Cell Line Bank, Korea) and HK-2 (Korean Cell Line Bank, Korea) were cultured in T 75 flask containing DMEM (Gibco-BRL, USA) supplemented with 10% FBS at the concentration of 5×10^5 cells/ml. […] Those drugs were dissolved in DMSO and water. The concentration of vehicle was up to 0.1% in every experiment.
(§4) MTT assay was performed with BEAS-2B, JEG-3, HK-2, THLE-3 and HUVEC according to the method of Mossman et al (J. Immunol. Methods, 65, 55-63, 1983). The cells (Table 2) in a 24-well plate were treated with each drug dissolved in DMSO or water. 48 hours later, 5 mg/ml of MTT (3-[4,5-dimethylthiazol-2-yl]-2,5-diphenyltetra zolium bromide) was added thereto, followed by culture at 37 for 3 hours. Then, the medium was eliminated and the formed formazan crystal was dissolved in 500 μl of DMSO. The mixture was aliquoted in a 96-well plate and OD54o was measured.
(§5) MTT assay was performed with BEAS-2B, JEG-3, HK-2 and HepG2 according to the method of Mossman et al (J. Immunol. Methods, 65, 55-63, 1983). The cells (Table 2) in a 24-well plate were treated with each drug dissolved in DMSO or water. 24 and 48 hours later, 5 mg/μl of MTT (3-[4,5-dimethylthiazol-2-yl]-2,5-diphenyltetra zolium bromide) was added thereto, followed by culture at 37 for 3 hours. Then, the medium was eliminated and the formed formazan crystal was dissolved in 500 μl of DMSO. The mixture was aliquoted in a 96-well plate and OD540 was measured.
The nature of data set [4]: Cytotoxicity test (MTT assay) in HUVEC. It counts as cell-based. The settings on record: human, HUVEC 10 × 10^4 cells/well, survival inhibited 20%, read-out: Cytotoxicity IC20 Conc.
Method: as §1, §2
A further data set relates to HepG2. In words: Cytotoxicity test (MTT assay) in HepG2. Type of data set: cell-based, human. The settings on record: Table 11; HepG2 40 × 10^4 cells/well, 48 h; read-out: Cytotoxicity IC20 Conc.
The nature of data set [5]: Cytotoxicity test (MTT assay) in THLE-3. The settings on record: human.
Method: as §1, §2
Data set [6] concerns JEG-3. In words: Cytotoxicity test (MTT assay) in JEG-3. To be noted: Table 11; JEG-3 3 × 10^4 cells/well, 48 h.
Method: as §3, §4, §5
The subject of data set [7] is HK-2. The settings on record: human, 24 h.
Method: as §3, §4
(§6) MTT assay was performed with BEAS-2B, JEG-3, HK-2 and HepG2 according to the method of Mossman et al (J. Immunol. Methods, 65, 55-63, 1983). The cells (Table 2) in a 24-well plate were treated with each drug dissolved in DMSO or water. 24 and 48 hours later, 5 mg/μl of MTT (3-[4,5-dimethylthiazol-2-yl]-2,5-diphenyltetra zolium bromide) was added thereto, followed by culture at 37 for 3 hours. […] The mixture was aliquoted in a 96-well plate and OD540 was measured.
In the next data set the test system is THLE-3. The data set is described as follows: Cytotoxicity test (MTT assay) in THLE-3. The settings on record: read-out: Cytotoxicity IC20 Conc.; THLE-3 3 × 10^4 cells/well, 3 h; survival inhibited 20%.
Data set [8] concerns HK-2. In words: Cytotoxicity test (MTT assay) in HK-2. To be noted: HK-2 2.3 × 10^4 cells/well, 24 h; survival inhibited 30%.
Method: as §3, §4, §6
The nature of data set [9]: Cytotoxicity test (MTT assay) in HepG2. To be noted: human. It counts as cell-based, human.
Method: The cells (Table 2) in a 24-well plate were treated with each drug dissolved in DMSO or water. 24 and 48 hours later, 5 mg/μl of MTT (3-[4,5-dimethylthiazol-2-yl]-2,5-diphenyltetra zolium bromide) was added thereto, followed by culture at 37 for 3 hours. Then, the medium was eliminated and the formed formazan crystal was dissolved in 500 μl of DMSO. The mixture was aliquoted in a 96-well plate and OD540 was measured.

Values after ≈ are worked out from the molar mass of the structure shown. Where two headings read alike, the source gives them in different places.

For the compound `COS(C)(=O)=O` [Methylmethanesulfonate, methylmethanesulfonate], it took 510 µM to reach the 20% level in the data set “in vitro [1]” (IC20 at 3 h).

Take `NC(=O)N1c2ccccc2C=Cc2ccccc21` [Carbamazepine]: the 20% effect concentration (IC20) at 48 h in “in vitro [2]” is 324 µM.

Regarding `O=C1CCC(N2C(=O)c3ccccc3C2=O)C(=O)N1` (stereo not shown) [Thalidomide], in the data set with JEG-3 [3], the “Cytotoxicity IC30 Conc.” value is 4283 µM.

For the compound `CCCC(CCC)C(=O)O` [Valproic acid], the “Cytotoxicity IC30 Conc.” value with JEG-3 [3] stood at 7380 µM.

As for `COc1cccc2c1C(=O)c1c(O)c3c(c(O)c1C2=O)C[C@@](O)(C(=O)CO)C[C@@H]3O[C@H]1C[C@H](N)[C@H](O)[C@H](C)O1` [Doxorubicin], in data set [4], the 20% effect concentration (IC20) at 48 h amounted to 0.083 µg/mL (≈ 0.153 µM).

For the compound `CC(=O)Nc1ccc(O)cc1` [Acetaminophene], the 20% effect concentration (IC20) in the data set on HepG2 was 11000 µM.

`CN(Cc1cnc2nc(N)nc(N)c2n1)c1ccc(C(=O)N[C@@H](CCC(=O)O)C(=O)O)cc1` [Methotrexate]: the “Cytotoxicity IC30 Conc.” value with JEG-3 [3] was found to be 4750 µM. In addition, in “in vitro [2]”, the 20% effect level (IC20 at 48 h) was put at 0.144 µM.

In data set [5], `O=[N+]([O-])c1cc[n+]([O-])c2ccccc12` [4-nitroquinoline-N-oxide] displayed an IC20 at 3 h of 0.83 µM.

Consider `CC(=O)CC(c1ccccc1)c1c(O)c2ccccc2oc1=O` (stereo not shown) [Warfarin], for which, in the data set on JEG-3 [6], the “Cytotoxicity IC30 Conc.” value was found to be 8160 µM.

With `CC(C)Cc1ccc(C(C)C(=O)O)cc1` (stereo not shown) [Ibuprofen], the “Cytotoxicity IC30 Conc.” value in the data set with HK-2 [7] amounted to 1650 µg/mL.

Take `NC(=O)/C(=C\c1ccc([N+](=O)[O-])o1)c1ccco1` [Furylfuramide]: in the data set on THLE-3, the IC20 is 243 µM.

In “in vitro [2]”, `CCCCc1oc2ccccc2c1C(=O)c1cc(I)c(OCCN(CC)CC)c(I)c1` [Amiodarone] returned an IC20 at 48 h of 29.4 µM.

For Gentamycin, the “Cytotoxicity IC30 Conc.” value with HK-2 [8] came to 3440 µg/mL.

In turn, `O=[N+]([O-])c1ccc2c(c1)Cc1ccccc1-2` [2-nitrofluorene] yielded an IC20 at 3 h in the data set “in vitro [1]” of 80.8 µM.

Regarding `c1ccc2c(c1)cc1ccc3cccc4ccc2c1c34` [Benzo(a)pyrene], the 20% effect concentration (IC20) at 48 h in [9] was 8.35 µM.

`O=C1CN(/N=C/c2ccc([N+](=O)[O-])o2)C(=O)N1` [Nitrofurantoin] came in with an IC20 at 48 h in “in vitro [2]” of 89.5 µM.

With `COc1cccc2c1C(=O)c1c(O)c3c(c(O)c1C2=O)C[C@@](O)(C(C)=O)C[C@@H]3O[C@H]1C[C@H](N)[C@H](O)[C@H](C)O1` [Daunorubicin], in data set [4], the IC20 at 48 h was determined as 0.191 µg/mL (≈ 0.362 µM).

The compound `CN(N=O)C(N)=O` [N-nitroso-N-methylurea] displayed an IC20 at 3 h in data set [5] of 2090 µM.

(Values after patent US20110118127A1, “MARKER GENES FOR SCREENING OF DRUG-INDUCED TOXICITY IN HUMAN CELLS AND SCREENING METHOD USING THE SAME” (priority 2009, published 2011).)
